These results are taken from patent publication US11401246B2, “Triazole glycolate oxidase inhibitors” (CANTERO THERAPEUTICS, INC., priority 2018, dated 2022).

pIC50: −log10 of the molar value.

The assay addresses T1, human glycolate oxidase (hGO) (Homo sapiens, UniProt Q9UJM8).
T1 construct: His-tag (6 histidines, pET-15b) (N); made in house; host or cells: E. coli BL21 (DE3)
T1 sequence (Q9UJM8 1-370): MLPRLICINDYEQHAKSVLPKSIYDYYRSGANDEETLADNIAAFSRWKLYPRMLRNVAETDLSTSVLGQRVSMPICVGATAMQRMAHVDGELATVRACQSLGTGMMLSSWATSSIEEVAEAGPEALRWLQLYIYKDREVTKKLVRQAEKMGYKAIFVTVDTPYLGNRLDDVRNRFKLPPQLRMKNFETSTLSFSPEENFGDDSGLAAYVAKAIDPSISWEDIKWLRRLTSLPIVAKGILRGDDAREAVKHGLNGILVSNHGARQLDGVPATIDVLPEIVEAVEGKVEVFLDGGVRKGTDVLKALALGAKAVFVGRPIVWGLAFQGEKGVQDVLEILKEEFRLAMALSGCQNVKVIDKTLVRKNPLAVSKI
Nature of the assay: In vitro inhibition of human glycolate oxidase (enzymatic assay, HRP-coupled Trinder reaction).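 Note: values are IC50 potency bins despite the % Inhibition label.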 In kind it is biochemical. As to conditions: recombinant hGO, 40 mM glycolic acid, pH 7, read at 515 nm, 1 minute after initiation of Trinder reaction; read-out: % Inhibition. The gist of the method: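 Glyoxylate production measured indirectly: H2O2 from hGO oxidation of 40 mM glycolic acid (pH 7 phosphate, 0.1 mM EDTA) drives HRP-coupled quinoneimine dye formation, read spectrophotometrically at 1 minute. Enzyme is His-tagged human Hao1 expressed in BL21 E. coli and nickel-affinity purified.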
Consider `CC(C)c1cccc(-c2ccc(Oc3[nH]nnc3C(=O)O)cc2)c1` [Example 109, 5-((3′-isopropyl-[1,1′-biphenyl]-4-yl)oxy)-1H-1,2,3-triazole-4-carboxylic Acid], for which the pIC50 was below 6.70. To `O=C(O)c1nn[nH]c1Oc1ccc(-c2cc(F)c(F)c(F)c2)cc1` [Example 110, 5-((3′,4′,5′-trifluoro-[1,1′-biphenyl]-4-yl)oxy)-1H-1,2,3-triazole-4-carboxylic Acid] belongs 6.70 to 7.00; to `CC(C)c1ccc(-c2cccc(Oc3[nH]nnc3C(=O)O)c2)cc1` [Example 111, 5-((4′-isopropyl-[1,1′-biphenyl]-3-yl)oxy)-1H-1,2,3-triazole-4-carboxylic Acid], 6.70 to 7.00. Under `O=C(O)c1nn[nH]c1Oc1ccc(-c2cccc(C(F)(F)F)c2)cc1` [Example 112, 5-((3′-(trifluoromethyl)-[1,1′-biphenyl]-4-yl)oxy)-1H-1,2,3-triazole-4-carboxylic Acid] stands 6.70 to 7.00; under `CC(C)c1ccc(-c2ccc(Sc3[nH]nnc3C(=O)O)cc2)cc1` [Example 113, 5-((4′-isopropyl-[1,1′-biphenyl]-4-yl)thio)-1H-1,2,3-triazole-4-carboxylic Acid], 6.70 to 7.00; under `O=C(O)c1nn[nH]c1Oc1cccc(-c2ccc(C(F)(F)F)cc2)c1` [Example 114, 5-((4′-(trifluoromethyl)-[1,1′-biphenyl]-3-yl)oxy)-1H-1,2,3-triazole-4-carboxylic Acid], 6.70 to 7.00.

Turning to `O=C(O)c1nn[nH]c1Sc1ccc(-c2ccc(C(F)(F)F)cc2)cc1` [Example 115, 5-((4′-(trifluoromethyl)-[1,1′-biphenyl]-4-yl)thio)-1H-1,2,3-triazole-4-carboxylic Acid], the pIC50 is 6.70 to 7.00. As for `O=C(O)c1nn[nH]c1Oc1ccc(-c2ccc(-c3cccnc3)cc2)cc1` [Example 120, 5-[4[4-(3-pyridyl)phenyl]phenoxy]-1H-1,2,3-triazole-4-carboxylic Acid], the pIC50 was 6.70 to 7.00. Consider `O=C(O)c1nn[nH]c1Oc1ccc(-c2ccc(C3CC3)cc2)cc1` [Example 121, 5-((4′-cyclopropyl-[1,1′-biphenyl]-4-yl)oxy)-1H-1,2,3-triazole-4-carboxylic Acid], for which the pIC50 is above 7.00.

For the compound `CC1(c2ccc(-c3ccc(Oc4[nH]nnc4C(=O)O)cc3)cc2)CC1` [Example 122, 5-((4′-(1-methylcyclopropyl)-[1,1′-biphenyl]-4-yl)oxy)-1H-1,2,3-triazole-4-carboxylic Acid], the pIC50 was 6.70 to 7.00. Turning to `O=C(O)c1nn[nH]c1Oc1ccc(-c2ccc(C3CC3(F)F)cc2)cc1` (stereo not shown) [Example 123, 5-((4′-(2,2-difluorocyclopropyl)-[1,1′-biphenyl]-4-yl)oxy)-1H-1,2,3-triazole-4-carboxylic Acid], the pIC50 is 6.70 to 7.00. Under `O=C(O)c1nn[nH]c1Oc1ccc(C2CCC3(CC2)CC3(F)F)cc1` (stereo not shown) [Example 126, 5-(4-(1,1-Difluorospiro[2.5]octan-6-yl)phenoxy)-1H-1,2,3-triazole-4-carboxylic acid] stands below 6.70; under `O=C(O)c1nn[nH]c1Oc1ccc(-c2ccc(C3CC(F)(F)C3)cc2)cc1` [Example 127, 5-((4′-(3,3-difluorocyclobutyl)-[1,1′-biphenyl]-4-yl)oxy)-1H-1,2,3-triazole-4-carboxylic Acid], 6.70 to 7.00.

As to `Cc1cc(-c2ccc(-c3ccc(Oc4[nH]nnc4C(=O)O)cc3)cc2)ccn1` [Example 129, 5˜((4′-(2-methylpyridin-4˜yl)-[1,1′-biphenyl]-4-yl)oxy)-1H-1,2,3-triazole-4-carboxylic Acid], the pIC50 is 6.70 to 7.00. Under `O=C(O)c1nn[nH]c1Oc1ccc(C2CC2(F)F)cc1` (stereo not shown) [Example 130, 5-(4-(2,2-difluorocyclopropyl)phenoxy)-1H-1,2,3-triazole-4-carboxylic Acid] stands below 6.70. To `O=C(O)c1nn[nH]c1Oc1ccc(C2CCC(F)(F)C2)cc1` (stereo not shown) [Example 131, 5-(4-(3,3-Difluorocyclopentyl)phenoxy)-1H-1,2,3-triazole-4-carboxylic Acid] belongs 6.70 to 7.00.
